Consider eleven molecules from US12629378B2, “Treatment of infantile hemangioma” (Arkayli Biopharma Inc., priority 2019, dated 2026).

Each structure is given as a SMILES string. In brackets after ≈: the same amount, converted by molar mass.

For data set [1] the following is noted: cited from earlier work.
The conditions of data set [2]: cited from earlier work; for Half-Life: in vivo; for distribution half-life: delivered intravenously.
The conditions of data set [3]: children, after an oral dose; cited from earlier work.
The test system of data set [4] is beta adrenergic receptors. The settings on record: fraction of the potency of Esmolol; cited from earlier work.
The nature of data set [5]: Esmolol solubility in various excipients. Format: physicochemical. From the text: Knowing the solubility of a drug in different excipients and chemical enhancers is important in optimizing the saturation solubility of the drug in topical and transdermal formulations. Here below is a table (Table 1) showing the solubility of esmolol in several excipients and chemical enhancers. The solubility of Esmolol was higher in hydrophilic excipients and lower in the more lipophilic excipients. Several of these compounds were used to prepare the formulations in Example 2, such as the co-enhancing system of oleyl alcohol and propylene glycol.

Data set [6] has as its system beta adrenergic receptors. As to conditions: times more potent; cited from earlier work.
The conditions of data set [7]: drop (0.05 mL) of timolol 0.5% solution to the eye of an adult; cited from earlier work.
For data set [8] the following is noted: children with pediatric glaucoma, intraocular; cited from earlier work.
The conditions of data set [9]: cited from earlier work. The source holds these as a separate data set.
For data set [10] the following is noted: adults; cited from earlier work.

In general, LogP refers to a log measure of how a compound divides between an organic and an aqueous phase.

Regarding `CC(C)(C)NC[C@H](O)COc1ccccc1C1CCCC1` [Penbutolol], the LogP in data set [1] is listed as 4.15. Besides, in data set [2], the Half-Life is 20 h.
Regarding `CC(C)NCC(O)COc1cccc2ccccc12` (stereo not shown) [Propranolol], in data set [2], the Half-Life was 4 to 5 h. In data set [3], the “time of peak effect on blood pressure and heart rate” value is “around 2 hours”.
On to `C=CCOc1ccccc1OCC(O)CNC(C)C` (stereo not shown) [Oxprenolol], for which the LogP in [1] is 2.1. Further, in [2], the Half-Life is 1 to 2 h.
With `CC(C)NCC(O)COc1ccc(CCC(=O)O)cc1` (stereo not shown) [inactive metabolite], the “potency relative to Esmolol” value in [4] was 1/1500.
Take `CC1(C)OC[C@@H](COC(=O)CCc2ccc(OC[C@@H](O)CNCCNC(=O)N3CCOCC3)cc2)O1` [Landiolol, [(4S)-2,2-dimethyl-1,3-dioxolan-4-yl]methyl 3-[4-[(2S)-2-hydroxy-3-[2-(morpholine-4-carbonylamino)ethylamino]propoxy]phenyl]propanoate]: in data set [1], the LogP was 0.44. Further, in [2], the distribution half-life entry is “about 2 minutes” and the Half-Life was 0.05 to 0.1 h.
Consider `COC(=O)CCc1ccc(OCC(O)CNC(C)C)cc1` (stereo not shown) [Esmolol, methyl 3-[4-[2-hydroxy-3-(propan-2-ylamino)propoxy]phenyl]propanoate], for which the “Sat. Conc.” value amounted to 23.4 mg/mL in data set [5] (Castor Oil (CO)); 101.9 mg/mL in [5] (Cotton seed oil (CSO)); 592.1 mg/mL in data set [5] (DMSO); 257.6 mg/mL in data set [5] (Dipropylene Glycol); 310.4 mg/mL in data set [5] (Ethanol); 157.3 mg/mL in data set [5] (Glyceryl monooleate (GMO)). Also, the “Sat. Conc.” value is listed as 196.2 mg/mL in data set [5] (Isopropyl myristate (IPM)); 122.2 mg/mL in data set [5] (Lauroglycol FCC (LG)); 56.9 mg/mL in [5] (Oleic acid (OA)); 112.2 mg/mL in [5] (Oleyl Alcohol); 58.1 mg/mL in data set [5] (Olive Oil (OO)); 248.6 mg/mL in [5] (PEG-400). Besides, the “Sat. Conc.” value is 450.7 mg/mL in data set [5] (Propylene Glycol), 56.6 mg/mL in [5] (Sesame oil (SO)) and 344.5 mg/mL in data set [5] (Transcutol P). Moreover, the solubility thermodynamic in [5] (water, read-out: Sat. Conc.) amounted to 704 mg/mL (≈ 2380 mM). The distribution half-life entry in [2] is listed as “about 2 minutes”. Also, the Half-Life in data set [2] was 0.15 h.
For `COCCc1ccc(OCC(O)CNC(C)C)cc1` (stereo not shown) [Metoprolol], the Half-Life in data set [2] is 3 to 7 h.
Consider `CC(C)NCC(O)COc1cccc2[nH]ccc12` (stereo not shown) [Pindolol], for which the LogP in data set [1] is reported as 1.75. Besides, the Half-Life in [2] is 3 to 4 h.
Regarding `CC(C)(C)NCC(O)COc1cccc2c1CC(O)C(O)C2` (stereo not shown) [Nadolol], the LogP in [1] is listed as 1. Also, the Half-Life in [2] is 14 to 25 h.
Regarding `CC(C)(C)NCC(O)COc1cccc2c1CCC(=O)N2` (stereo not shown) [Corteolol], the Half-Life in data set [2] is 6 to 8 h.
On to `CC(C)(C)NC[C@H](O)COc1nsnc1N1CCOCC1` [Timolol], for which the LogP in data set [1] is reported as 1.4. Moreover, the Half-Life in data set [2] was 2.5 to 5 h. Also, the “potency compared with propranolol” value in [6] is 4-10 times. Besides, the “fraction of each drop systemically absorbed through the ocular mucosa” value in [7] is “approximately 80%”. For the same molecule, in data set [8], the “systemic adverse effects (bradycardia, hypoglycemia, bronchial hyperreactivity), share of children” value is on record as 3-4%. Further, the “plasma samples in which timolol was detected” value in data set [9] (86/92 samples, applied to skin over IH) is 93%. In data set [9] (applied to skin over IH), the “plasma level normalized for dose, mean” value is 24.1 ± 62.7 ng/mL/mg; the “plasma level normalized for dose, median” value was 3 ng/mL/mg; the “plasma level normalized for dose, range” value is 0.06 to 424 ng/mL/mg; the “plasma level, median” value is recorded as 0.98 ng/mL. Moreover, in [9] (applied to skin over IH), the “plasma level, range” value is 0.03 to 106 ng/mL and the “samples with plasma levels >0.2 ng/mL” value is recorded as 80%. Moreover, in data set [9] (of 86 samples), the “samples between 0.020-0.2 ng/mL” value was 12/86. Moreover, the “subjects with plasma levels ≥10 ng/mL” value in [9] (similar to intravenous administration) is “Ten”. The “plasma concentration demonstrated to have measurable systemic beta-blocking activity” value in data set [10] was 0.2 ng/mL.
